Assay results published in article PMC7012052, “Discovery of antimicrobial compounds targeting bacterial type FAD synthetases” (Journal of Enzyme Inhibition and Medicinal Chemistry, 2017).
In brackets after ≈: the same amount, converted by molar mass. Structures can show the parent of a compound that is named as a salt. Where two headings read alike, the source gives them in different places.

Experiments:
CaFADS RFK activity = target: T1, CaFADS RFK activity (Corynebacterium ammoniagenes, UniProt Q59263); assay: RFK activity of CaFADS in the presence of HTS hits (flavins separated by HPLC); assay type: biochemical; settings: pH 7, read-out: % Residual RFK activity
T1 construct: Recombinant CaFADS was overexpressed in BL21 (DE3) E. coli cells and purified as previously described; made in house; host or cells: E. coli BL21 (DE3)
T1 sequence (Q59263 whole entry): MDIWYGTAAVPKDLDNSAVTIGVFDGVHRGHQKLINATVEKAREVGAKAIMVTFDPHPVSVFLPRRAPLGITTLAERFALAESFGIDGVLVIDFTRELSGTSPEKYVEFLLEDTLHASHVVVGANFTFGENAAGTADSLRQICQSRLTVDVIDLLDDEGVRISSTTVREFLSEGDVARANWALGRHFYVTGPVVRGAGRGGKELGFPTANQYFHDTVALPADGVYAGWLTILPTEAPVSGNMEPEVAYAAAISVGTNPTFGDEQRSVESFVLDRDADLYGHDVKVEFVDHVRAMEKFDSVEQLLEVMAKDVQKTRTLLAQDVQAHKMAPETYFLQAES
Description: (§1) Then, the RFK and FMNAT reactions were individually assayed in the presence of the HTS hits at 25 °C. Reaction mixtures contained 50 µM ATP, 5 µM RF, 0.4 µM CaFADS in 20 mM PIPES, pH 7.0, 0.8 mM MgCl2, when assaying the RFK activity, and 50 µM ATP, 10 µM FMN, 0.4 µM CaFADS in 20 mM PIPES, pH 7.0, 10 mM MgCl2 when measuring the FMNAT reaction. […] Finally, reactions were stopped by boiling the samples at 100 °C for 5 min, and the precipitated protein was eliminated through centrifugation. The transformation of RF into FMN or FAD was evaluated through flavins separation by HPLC, as previously described. […] When assaying the HTS hits against the FMNAT activity of SpnFADS, similar conditions were used but samples contained 3 mM sodium dithionite to maintain the flavin in its reduced state. Data were processed as previously reported. All the experiments were performed in triplicate.

CaFADS FMNAT activity = target: T2, CaFADS FMNAT activity (Corynebacterium ammoniagenes, UniProt Q59263); assay: FMNAT activity of CaFADS: residual activity, IC50, inhibition mechanism (HPLC); assay type: biochemical; settings: for remaining activity at 250 µM: pH 7, read-out: % Residual FMNAT activity; for remaining activity at 50 µM: read-out: Residual activity (FMNAT); for Ki: global Lineweaver–Burk fit
T2 construct: Recombinant CaFADS was overexpressed in BL21 (DE3) E. coli cells and purified as previously described; made in house; host or cells: E. coli BL21 (DE3)
T2 sequence (Q59263 whole entry): as above
Description: as §1
(§2) Experiments were performed and analysed through HPLC as described above. Positive controls (without any hit compound) were included in every reaction set. DMSO concentration was kept at 2.5% in all samples. All the experiments were performed in triplicate.
All the experiments were carried out in 20 mM PIPES, 10 mM MgCl2, pH 7.0, 2.5% DMSO at 25 °C, being the final reaction volume 500 µl. The reactions were initiated by addition of CaFADS at a final concentration of ∼40 nM, followed by 1 min incubation. The flavin composition of the supernatant was analysed as previously described. All the experiments were performed in triplicate. The effect of the inhibitors on Km and Vmax was determined by fitting the data sets to the Michaelis–Menten model. Additionally, data were globally fit to Lineweaver–Burk equations for competitive, uncompetitive, non-competitive or mixed inhibition, yielding Ki, as well as Ki′ when applying, for each compound (Equations (1–4), respectively).

SpnFADS FMNAT activity = SpnFADS FMNAT activity (Streptococcus pneumoniae, UniProt A0A0H2UPY5); assay: biochemical; settings: SpnFADS, 25 °C; for IC50: compounds assayed 0–100 μM, read-out: FMNAT activity IC50
Sequence of SpnFADS FMNAT activity (A0A0H2UPY5 entry or part of it): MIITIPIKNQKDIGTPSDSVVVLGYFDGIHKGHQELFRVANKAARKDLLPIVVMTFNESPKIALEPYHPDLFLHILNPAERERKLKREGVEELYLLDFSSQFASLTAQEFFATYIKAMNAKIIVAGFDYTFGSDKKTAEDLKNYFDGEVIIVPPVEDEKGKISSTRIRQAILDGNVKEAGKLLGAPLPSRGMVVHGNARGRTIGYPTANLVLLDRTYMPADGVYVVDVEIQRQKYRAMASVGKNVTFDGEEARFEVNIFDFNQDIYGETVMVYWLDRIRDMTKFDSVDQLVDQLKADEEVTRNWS
Description: as §1, §2

SpnFADS RFK activity = SpnFADS RFK activity (Streptococcus pneumoniae, UniProt A0A0H2UPY5); assay: biochemical
Sequence of SpnFADS RFK activity (A0A0H2UPY5 entry or part of it): as above
Description: as §1, §2

[1] = tested on: C. ammoniagenes ATCC 6872; assay: MIC by resazurin microplate assay (broth microdilution); assay type: cell-based, Corynebacterium ammoniagenes; settings: for MIC: Corynebacterium ammoniagenes, ATCC6872, 16 h
[2] = tested on: M. tuberculosis ATCC 27,294; assay: as above; assay type: cell-based, Mycobacterium tuberculosis; settings: for MIC: read-out: Minimal inhibitory concentration (MIC) M. tuberculosis
S. pneumoniae ATCC 49619 = assay: as above; assay type: cell-based, Streptococcus pneumoniae; settings: read-out: Minimal inhibitory concentration (MIC) S. pneumoniae
CaFADS = target: T3, CaFADS (Corynebacterium ammoniagenes, UniProt Q59263); assay: Isothermal titration calorimetry (ITC) of hits binding to CaFADS; settings: ITC 25 °C, for 24: Site 1–2
T3 construct: Recombinant CaFADS was overexpressed in BL21 (DE3) E. coli cells and purified as previously described; made in house; host or cells: E. coli BL21 (DE3)
T3 sequence (Q59263 whole entry): as the sequence (Q59263 whole entry) above
Description: ITC experiments were performed to characterise the protein’s affinity for the selected compounds, as also the thermodynamic parameters that drive the interaction. Experiments were carried out in an AutoITC200 (MicroCal) thermostated at 25 °C. In these experiments, ∼400 µM of each compound were used to titrate ∼25 µM CaFADS contained in a 200 µL cell. However, when saturation of the protein was not reached, higher concentrations of compounds were employed. The titrations were performed by stepwise injections of the titrating compound. Up to 19 injections of 2 µl were added to the cell sample and mixed using a 1000 rpm stirrer syringe. The compounds and the protein were dissolved in 20 mM PIPES, pH 7.0, 10 mM MgCl2 and degassed prior to titration. DMSO was added to the protein and ligand samples, until reach a final concentration of 3%. The association constant (Ka), the enthalpy variation (ΔH) and the binding stoichiometry (N), were obtained through non-lineal regression of the data to a model for one or two independent binding sites, implemented in Origin 7.0 (OriginLab) as previously described[27]^,[29]. The entropic contribution (−TΔS), the Gibbs free energy (ΔG) and the dissociation constant (Kd) were obtained through essential thermodynamic equations.

[3] = 100 μM of each compound, n = 3, mean ± SD, read-out: FMNAT activity Res. activity
[4] = SpnFADS, compounds assayed 0–100 μM, 25 °C, read-out: RFK activity IC50
[5] = read-out: RFK activity Res. activity
[6] = read-out: Minimal inhibitory concentration (MIC) C. ammoniagenes
[7] = Mycobacterium tuberculosis, ATCC27, 144 h
[8] = Streptococcus pneumoniae, ATCC49619, 10 h
[9] = SpnFADS, 100 μM of each compound, 25 °C, n = 3, mean ± SD, read-out: RFK activity Res. activity
[10] = read-out: Minimal inhibitory concentration (MIC) C. ammoniagenes, assayed 0.125–64 μM, 16 h at 37 °C, BHI
[11] = assayed 0.125–64 μM, 6 days at 37 °C, Middlebrook 7H9

Compound	remaining activity at 250 µM (CaFADS RFK activity) [%]	IC50 (CaFADS FMNAT activity) [µM]	remaining activity at 250 µM (CaFADS FMNAT activity) [%]	remaining activity at 50 µM (CaFADS FMNAT activity) [%]	IC50 (SpnFADS RFK activity; [4]) [µM]	MIC [1, 6] [µM]	MIC [2, 7] [µM]	MIC (S. pneumoniae ATCC 49619; [8]) [µM]	activity at 100 µM (SpnFADS FMNAT activity; [3]) [%]	MIC [1, 10] [µM]	other results
Cc1c(Cl)cccc1Nc1ccccc1C(=O)O [HTS hit 2]	≥ 75	8.9 ± 1	≤ 5	41.1 ± 5.2	> 100	> 64	> 64	> 64			remaining activity at 100 µM (SpnFADS FMNAT activity; [3]): 100 ± 12%; remaining activity at 100 µM (SpnFADS RFK activity; [5]): 78 ± 10%
O=C(O)c1cc(/N=N/c2ccc(S(=O)(=O)Nc3ccccn3)cc2)ccc1O [HTS hit 8, sulfasalazine]	≥ 75		5 to 50								
CCCCCCCCCCCCCCCC[N+](C)(C)CCN(Cc1ccc(OC)cc1)c1ncccn1 [HTS hit 9, thonzonium bromide]	≤ 5		≤ 5		6 ± 1	2	16	1 to 2	7 ± 1	< 2	IC50 (SpnFADS FMNAT activity): 78 ± 6 µM; activity at 100 µM (SpnFADS RFK activity; [9]): 0%
O=C(O)c1cccnc1Nc1cccc(C(F)(F)F)c1 [HTS hit 11]	≥ 75	9 ± 1.3	≤ 5	34.6 ± 4.9		> 64	> 64	> 64			
CCc1oc2ccccc2c1C(=O)c1cc(Br)c(O)c(Br)c1 [HTS hit 17, benzbromarone]	≥ 75	12.8 ± 3.4	≤ 5	33.5 ± 10.1		8 (≈ 3.39 µg/mL)	> 64	> 64		2 to 16 (≈ 0.848 to 6.79 µg/mL)	
CN1CCCN=C1/C=C/c1cccc(O)c1 [HTS hit 19, oxantel pamoate]	≥ 75	20.8 ± 2.6	≤ 5	43.3 ± 3.9							
Cc1c(Nc2ncccc2C(=O)O)cccc1C(F)(F)F [HTS hit 31, flunixin meglumine]	≥ 75	6.6 ± 0.6	≤ 5	24.5 ± 1.9		32 to 64	> 64	> 64		> 64	Inhibition mechanism (CaFADS FMNAT activity; CaFADS FMNAT, saturating ATP (regarding the FMN substrate)): Non-competitive; Inhibition mechanism (CaFADS FMNAT activity; CaFADS FMNAT, saturating FMN (regarding the ATP substrate)): Mixed; K'i (CaFADS FMNAT activity; CaFADS FMNAT, saturating FMN, varying ATP, binding to the CaFADS-ATP complex): 18.4 ± 4.0 µM; Ki (CaFADS FMNAT activity; CaFADS FMNAT, saturating ATP, varying FMN): 0.09 ± 0.03 µM; Ki (CaFADS FMNAT activity; CaFADS FMNAT, saturating FMN, varying ATP): 3.5 ± 1 µM; apparent kcat (CaFADS FMNAT activity; saturating ATP, varying FMN, inhibitor 1 μM): 0.41 ± 0.0483 s⁻¹; apparent kcat (CaFADS FMNAT activity; saturating ATP, varying FMN, inhibitor 4 μM): 0.302 ± 0.0233 s⁻¹; apparent kcat (CaFADS FMNAT activity; saturating ATP, varying FMN, inhibitor 5 μM): 0.107 ± 0.02 s⁻¹; apparent kcat (CaFADS FMNAT activity; saturating ATP, varying FMN, inhibitor 7 μM): 0.05 ± 0.0067 s⁻¹; apparent kcat (CaFADS FMNAT activity; saturating ATP, varying FMN, inhibitor 10 μM): 0.05 ± 0.0067 s⁻¹; apparent kcat (CaFADS FMNAT activity; saturating FMN, varying ATP, inhibitor 4 μM): 0.328 ± 0.0167 s⁻¹; apparent kcat (CaFADS FMNAT activity; saturating FMN, varying ATP, inhibitor 5 μM): 0.288 ± 0.0183 s⁻¹; apparent kcat (CaFADS FMNAT activity; saturating FMN, varying ATP, inhibitor 7 μM): 0.282 ± 0.01 s⁻¹; apparent kcat (CaFADS FMNAT activity; saturating FMN, varying ATP, inhibitor 10 μM): 0.255 ± 0.0217 s⁻¹; apparent kcat (CaFADS FMNAT activity; saturating FMN, varying ATP, inhibitor 12 μM): 0.23 ± 0.0167 s⁻¹; N (binding stoichiometry) (CaFADS; 3% DMSO): ≈ 1; ΔG (CaFADS; average value where N ≈ 2): -6.2 ± 0.6 kcal/mol; ΔH (CaFADS; average value where N ≈ 2): -7.2 ± 0.4 kcal/mol; −TΔS (CaFADS; average value where N ≈ 2): 1.1 ± 0.1 kcal/mol; Kd (CaFADS; Kd, 3% DMSO, average value for two hit molecules where N ≈ 2): 30.9 ± 2.8 µM
CC/C(=C(/CC)c1ccc(O)cc1)c1ccc(O)cc1 [HTS hit 32, diethylstilbestrol]	50 to 75		5 to 50			8 (≈ 2.15 µg/mL)	> 64	64 (≈ 17.2 µg/mL)		2 to 16 (≈ 0.537 to 4.29 µg/mL)	
CCCCC(CC)CNC(=N)NC(=N)NCCCCCCNC(=N)NC(=N)NCC(CC)CCCC (stereo not drawn) [HTS hit 33, alexidine dihydrochloride]	≤ 5		≤ 5		33 ± 4	0.125	2 to 4	0.5	93 ± 11	< 2	IC50 (SpnFADS FMNAT activity): > 100 µM; activity at 100 µM (SpnFADS RFK activity; [9]): 26 ± 3%; Minimal inhibitory concentration (MIC) M. tuberculosis [2, 11]: below 8 μM
C/C=C(/C(=C/C)c1ccc(O)cc1)c1ccc(O)cc1 [HTS hit 35, dienestrol]	≤ 5		5 to 50			16 to 32 (≈ 4.26 to 8.52 µg/mL)	> 64	64 (≈ 17 µg/mL)		2 to 16 (≈ 0.533 to 4.26 µg/mL)	
CC(C)n1c(/C=C/C(O)CC(O)CC(=O)O)c(-c2ccc(F)cc2)c2ccccc21 (stereo not drawn) [HTS hit 37, fluvastatin sodium salt]	≤ 5		≤ 5			> 64	> 64	> 64	0		IC50 (SpnFADS FMNAT activity): 7 ± 1 µM; IC50 (SpnFADS RFK activity): > 100 µM; activity at 100 µM (SpnFADS RFK activity; [5]): 96 ± 10%
O=C(O)CCc1nc(-c2ccccc2)c(-c2ccccc2)o1 [HTS hit 43, oxaprozin]	≥ 75	1 ± 0.5	≤ 5	20.3 ± 5.2	14 ± 2				100 ± 15		activity at 100 µM (SpnFADS RFK activity; [5]): 32 ± 3%
verteporfin [HTS hit 47]											Minimal inhibitory concentration (MIC) C. ammoniagenes ([1]; assayed 0.125–64 μM, 16 h at 37 °C, BHI): 2 to 4 µM; MIC [2, 11]: 8 µM; MIC (S. pneumoniae ATCC 49619; assayed 0.125–64 μM, 10 h at 37 °C, BHI with 4% FBS): 4 µM
